Measurements: patent US9580396B2, “C6-spiro iminothiadiazine dioxides as BACE inhibitors, compositions, and their use” (Merck Sharp & Dohme Corp., priority 2012, dated 2017)

Legend:
[1] = biological target: purified human autoBACE-2 (Homo sapiens (Human), UniProt Q9Y5Z0); experiment: BACE-2 Assay (BACE-HTRF assay); assay type: biochemical; details: Ki calculated from IC50 using the Cheng-Prusoff equation; QSY7-EISEVNLDAEFC-Eu-amide substrate, pH 5.0; read-out: BACE2 Ki
Protocol: Inhibitor IC50s at purified human autoBACE-2 are determined in a time-resolved endpoint proteolysis assay that measures hydrolysis of the QSY7-[…]-Eu-amide FRET peptide substrate (BACE-HTRF assay). […] DMSO is present at 5% final concentration in the assay. Following laser excitation of sample wells at 320 nm, the fluorescence signal at 620 nm is collected for 400 ms following a 50 μs delay on a RUBYstar HTRF plate reader (BMG Labtechnologies). Raw RFU data is normalized to maximum (1.0 nM BACE/DMSO) and minimum (no enzyme/DMSO) RFU values. […] The Ki values are calculated from the IC50 using the Cheng-Prusoff equation.

[2] = biological target: soluble human BACE1 catalytic domain (Homo sapiens (Human), UniProt P56817); experiment: BACE1 HTRF FRET Assay; assay type: biochemical; details: Ki calculated from IC50 using the Cheng-Prusoff equation; QSY7-APPswe-Eu substrate, pH 5.0
Text: Na^+-Acetate pH 5.0; 1% Brij-35; Glycerol; Dimethyl Sulfoxide (DMSO); Recombinant human soluble BACE1 catalytic domain (>95% pure); APP Swedish mutant peptide substrate (QSY7-APP^swe-Eu): QSY7-EISEVNLDAEFC-Europium-amide.
A homogeneous time-resolved FRET assay can be used to determine IC50 values for inhibitors of the soluble human BACE1 catalytic domain. This assay monitors the increase of 620 nm fluorescence that resulted from BACE1 cleavage of an APPswedish APP^swe mutant peptide FRET substrate (QSY7-EISEVNLDAEFC-Europium-amide). This substrate contains an N-terminal QSY7 moiety that serves as a quencher of the C-terminal Europium fluorophore (620 nm Em). In the absence of enzyme activity, 620 nm fluorescence is low in the assay and increased linearly over 3 hours in the presence of uninhibited BACE1 enzyme Inhibition of BACE1 cleavage of the QSY7-APP^swe-Eu substrate by inhibitors is manifested as a suppression of 620 nm fluorescence.
Varying concentrations of inhibitors at 3× the final desired concentration in a volume of 10 ul are preincubated with purified human BACE1 catalytic domain (3 nM in 10 μl) for 30 minutes at 30° C. in reaction buffer containing 20 mM Na-Acetate pH 5.0, 10% glycerol, 0.1% Brij-35 and 7.5% DSMO. Reactions are initiated by addition of 10 μl of 600 nM QSY7-APP^swe-Eu substrate (200 nM final) to give a final reaction volume of 30 μl in a 384 well Nunc HTRF plate. The reactions are incubated at 30° C. for 1.5 hours. The 620 nm fluorescence is then read on a Rubystar HTRF plate reader (BMG Labtechnologies) using a 50 millisecond delay followed by a 400 millisecond acquisition time window Inhibitor IC50 values are derived from non-linear regression analysis of concentration response curves. Ki values are then calculated from IC50 values using the Cheng-Prusoff equation using a previously determined […] of 8 μM for the QSY7-APP^swe-Eu substrate at BACE1.

Sequence of soluble human BACE1 catalytic domain (P56817 75-416): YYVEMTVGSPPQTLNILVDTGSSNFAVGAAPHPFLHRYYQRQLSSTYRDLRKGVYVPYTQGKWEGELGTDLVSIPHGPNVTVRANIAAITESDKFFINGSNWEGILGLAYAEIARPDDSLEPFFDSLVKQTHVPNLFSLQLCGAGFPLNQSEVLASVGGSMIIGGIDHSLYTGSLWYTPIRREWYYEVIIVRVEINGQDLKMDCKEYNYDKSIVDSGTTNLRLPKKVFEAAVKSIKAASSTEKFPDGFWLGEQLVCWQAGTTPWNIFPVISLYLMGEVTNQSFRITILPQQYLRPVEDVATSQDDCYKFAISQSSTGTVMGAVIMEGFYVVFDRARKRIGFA

Row | SMILES | Ki [1] | Ki [2]
1 | Cc1cc(C#N)cnc1C(=O)Nc1ccc2c(c1)[C@]1(CCC2)CS(=O)(=O)N(C)C(=N)N1 [Example 5q] | 17 nM | 9 nM
2 | CN1C(=N)N[C@@]2(CCCc3ccc(NC(=O)c4ccc(C#N)cn4)cc32)CS1(=O)=O [Example 5i] | 44 nM | 19 nM
3 | CN1C(=N)N[C@@]2(CCCc3ccc(NC(=O)c4cnc(OCC(F)(F)F)cn4)cc32)CS1(=O)=O [Example 5m] | 508 nM | 72 nM
4 | COc1cnc(C(=O)Nc2ccc3c(c2)[C@]2(CCO3)CS(=O)(=O)N(C)C(=N)N2)cn1 [Example 2l] | 254 nM | 212 nM
5 | COc1cnc(C(=O)Nc2ccc3c(c2)[C@]2(CCO3)CS(=O)(=O)N(C)C(=N)N2)c(C)n1 [Example 2j] | 160 nM | 294 nM
6 | CN1C(=N)N[C@@]2(CCOc3ccc(NC(=O)c4ccc(OC(F)(F)F)cn4)cc32)CS1(=O)=O [Example 2v] | 261 nM | 52 nM
7 | CN1C(=N)N[C@@]2(CCOc3ccc(NC(=O)c4ccn(C(F)F)n4)cc32)CS1(=O)=O [Example 2p] | 3 nM | 20 nM
8 | C#CCOc1cnc(C(=O)Nc2ccc3c(c2)[C@]2(CCC3)CS(=O)(=O)N(C)C(=N)N2)cn1 [Example 5l] | 77 nM | 11 nM
9 | CN1C(=N)N[C@@]2(CCCc3ccc(NC(=O)c4ncc(Cl)cc4F)cc32)CS1(=O)=O [Example 5k] | 8 nM | 54 nM
10 | CN1C(=N)N[C@@]2(CCCc3ccc(NC(=O)c4cnsn4)cc32)CS1(=O)=O [Example 5t] | 56 nM | 264 nM
11 | CN1C(=N)N[C@@]2(CCOc3ccc(NC(=O)C(F)F)cc32)CS1(=O)=O [Example 1d] | 728 nM | 2280 nM
12 | CN1C(=N)N[C@@]2(CCOc3ccc(NC(=O)c4cnsn4)cc32)CS1(=O)=O [Example 2s] | 46 nM | 240 nM
13 | COCC(=O)Nc1ccc2c(c1)[C@]1(CCC2)CS(=O)(=O)N(C)C(=N)N1 [Example 4c] | 260 nM | 2120 nM
14 | CN1C(=N)N[C@@]2(CCCc3ccc(NC(=O)c4ccc(OCF)cn4)cc32)CS1(=O)=O [Example 5g] | 33 nM | 77 nM
15 | COc1ccc(C(=O)Nc2ccc3c(c2)[C@]2(COC3)CS(=O)(=O)N(C)C(=N)N2)nc1 [Example 3b] | 354 nM | 1160 nM
16 | CN1C(=N)N[C@@]2(COCc3ccc(NC(=O)c4ccc(Cl)cn4)cc32)CS1(=O)=O [Example 3a] | 58 nM | 272 nM
17 | CN1C(=N)N[C@@]2(CCCc3ccc(NC(=O)c4cn5cc(C#N)ccc5n4)cc32)CS1(=O)=O [Example 5a] | 1130 nM | 636 nM
18 | Cc1nc(C(=O)Nc2ccc3c(c2)[C@]2(CCO3)CS(=O)(=O)N(C)C(=N)N2)co1 [Example 2b] | 20 nM | 142 nM
19 | CN1C(=N)N[C@@]2(CCOc3ccc(NC(=O)c4ccc(Cl)cn4)cc32)CS1(=O)=O [Example 1a] | 17 nM | 70 nM
20 | CN1C(=N)N[C@@]2(CCOc3ccc(NC(=O)c4ccc(C#N)cn4)cc32)CS1(=O)=O [Example 2c] | 51 nM | 26 nM
21 | CN1C(=N)N[C@@]2(CCOc3ccc(NC(=O)c4cnc(OCCF)cn4)cc32)CS1(=O)=O [Example 2w] | 572 nM | 229 nM
22 | CN1C(=N)N[C@@]2(CCOc3ccc(NC(=O)c4cnc(C(F)(F)F)cn4)cc32)CS1(=O)=O [Example 2m] | 1150 nM | 303 nM
23 | CN1C(=N)N[C@@]2(CCCc3ccc(NC(=O)c4ccc(F)cn4)cc32)CS1(=O)=O [Example 5b] | 28 nM | 192 nM
24 | CN1C(=N)N[C@@]2(CCCc3ccc(NC(=O)c4ccc(Cl)cn4)cc32)CS1(=O)=O [Example 4a] | 15 nM | 58 nM
25 | CN1C(=N)N[C@@]2(CCCc3ccc(NC(=O)c4ncc(C(F)(F)F)cn4)cc32)CS1(=O)=O [Example 5j] | 423 nM | 468 nM
26 | CN1C(=N)N[C@@]2(CCCc3ccc(NC(=O)c4cc5ccccn5n4)cc32)CS1(=O)=O [Example 5u] | 385 nM | 1340 nM

Row | SMILES | Ki [1] | Ki [2]
27 | COc1ccc(C(=O)Nc2ccc3c(c2)[C@]2(CCC3)CS(=O)(=O)N(C)C(=N)N2)nc1 [Example 4b] | 67 nM | 228 nM
28 | CN1C(=N)N[C@@]2(CCOc3ccc(NC(=O)c4ccc(OC(F)F)cn4)cc32)CS1(=O)=O [Example 2u] | 166 nM | 44 nM
29 | COCC(=O)Nc1ccc2c(c1)[C@]1(CCO2)CS(=O)(=O)N(C)C(=N)N1 [Example 1c] | 341 nM | 2010 nM
30 | C#CCOc1ccc(C(=O)Nc2ccc3c(c2)[C@]2(CCC3)CS(=O)(=O)N(C)C(=N)N2)nc1 [Example 5n] | 221 nM | 42 nM
31 | CN1C(=N)N[C@@]2(CCOc3ccc(NC(=O)c4cc5ccccn5n4)cc32)CS1(=O)=O [Example 2n] | 337 nM | 1490 nM
32 | CN1C(=N)N[C@@]2(CCCc3ccc(NC(=O)C(F)F)cc32)CS1(=O)=O [Example 4d] | 515 nM | 2580 nM
33 | CN1C(=N)N[C@@]2(CCCc3ccc(NC(=O)c4ccn(C(F)F)n4)cc32)CS1(=O)=O [Example 5w] | 3 nM | 20 nM
34 | COc1cnc(C(=O)Nc2ccc3c(c2)[C@]2(CCC3)CS(=O)(=O)N(C)C(=N)N2)cn1 [Example 5r] | 177 nM | 144 nM
35 | C#CCOc1cnc(C(=O)Nc2ccc3c(c2)[C@]2(CCO3)CS(=O)(=O)N(C)C(=N)N2)cn1 [Example 2f] | 138 nM | 13 nM
36 | COc1cnc(C(=O)Nc2ccc3c(c2)[C@]2(CCC3)CS(=O)(=O)N(C)C(=N)N2)c(C)n1 [Example 5p] | 123 nM | 224 nM
37 | CN1C(=N)N[C@@]2(CCOc3ccc(NC(=O)c4ncc(Cl)cc4F)cc32)CS1(=O)=O [Example 2e] | 9 nM | 49 nM
38 | CN1C(=N)N[C@@]2(CCCc3ccc(NC(=O)c4cnc(OCCF)cn4)cc32)CS1(=O)=O [Example 5e] | 487 nM | 257 nM
39 | CN1C(=N)N[C@@]2(CCCc3ccc(NC(=O)c4ccc(C(F)(F)F)cn4)cc32)CS1(=O)=O [Example 5v] | 171 nM | 55 nM
40 | Cc1nc(C(=O)Nc2ccc3c(c2)[C@]2(CCC3)CS(=O)(=O)N(C)C(=N)N2)co1 [Example 5h] | 11 nM | 108 nM
41 | Cc1cc(C#N)cnc1C(=O)Nc1ccc2c(c1)[C@]1(CCO2)CS(=O)(=O)N(C)C(=N)N1 [Example 2k] | 26 nM | 15 nM
42 | CN1C(=N)N[C@@]2(CCCc3ccc(NC(=O)c4cnc(C(F)(F)F)cn4)cc32)CS1(=O)=O [Example 5s] | 685 nM | 253 nM
43 | CN1C(=N)N[C@@]2(CCOc3ccc(NC(=O)c4ccc(C(F)(F)F)cn4)cc32)CS1(=O)=O [Example 2o] | 283 nM | 77 nM
44 | CN1C(=N)N[C@@]2(CCOc3ccc(NC(=O)c4cn5cc(C#N)ccc5n4)cc32)CS1(=O)=O [Example 2r] | 6910 nM | 604 nM
45 | COc1ccc(C(=O)Nc2ccc3c(c2)[C@]2(CCO3)CS(=O)(=O)N(C)C(=N)N2)nc1 [Example 1b] | 130 nM | 233 nM
46 | COc1cnc(C(=O)Nc2ccc3c(c2)[C@]2(CCC3)CS(=O)(=O)N(C)C(=N)N2)c(C)c1 [Example 5o] | 17 nM | 119 nM
47 | C#CCOc1ccc(C(=O)Nc2ccc3c(c2)[C@]2(CCO3)CS(=O)(=O)N(C)C(=N)N2)nc1 [Example 2h] | 313 nM | 33 nM
48 | CN1C(=N)N[C@@]2(CCCc3ccc(NC(=O)c4ccc(OC(F)(F)F)cn4)cc32)CS1(=O)=O [Example 5d] | 219 nM | 55 nM
49 | Cc1nc(C(=O)Nc2ccc3c(c2)[C@]2(CCC3)CS(=O)(=O)N(C)C(=N)N2)no1 [Example 5f] | 16 nM | 314 nM
50 | COc1cnc(C(=O)Nc2ccc3c(c2)[C@]2(CCO3)CS(=O)(=O)N(C)C(=N)N2)c(C)c1 [Example 2i] | 29 nM | 168 nM
51 | CN1C(=N)N[C@@]2(CCOc3ccc(NC(=O)c4ccc(OCF)cn4)cc32)CS1(=O)=O [Example 2a] | 59 nM | 91 nM
